Measurements from patent publication US9522260B2, “Apparatus for the controlled release of topical nitric oxide” (University of Windsor, priority 2011, dated 2016).

Assay: Thermal and storage stability of AuNP nanocomposites and SNOG
Format: physicochemical
Method: All of the AuNP-nanocomposites i) to iv) as well as SNOG solutions 1 mM, dissolved in distilled deionized water and containing 100 μM diethylenetriaminepentaacetic acid (DPTA) a metal chelator were stored at 5° C., 25° C. and 55° C. for 1 month. These components were then added to the testing apparatus 90 (FIG. 3) and their NO-release characteristics were compared to fresh samples.
In one simplest and most cost effective manner to prepare an AuNP-nanocomposite, cotton gauze with AuNP (˜10 nm) is prepared by a conventional citrate reduction method.
SNOG solutions (1 mM) containing DPTA (0.1 mm) decomposed ˜5% upon incubation at 40° C. for 7 days. Stability of the SNOG may be increased further by either suspending it in polyethylene glycol or dissolving it in glycerol.

decomposition of SNOG solution (SNOG solutions (1 mM) containing DPTA (0.1 mm), incubation at 40° C. for 7 days): ~5% | thermal stability of solid SNOG (solid, storage at 40° C. for one week, preliminary experiments): thermally stable
Compound: N[C@@H](CCC(=O)N[C@@H](CSN=O)C(=O)NCC(=O)O)C(=O)O [SNOG, S-nitrosoglutathione]
